Measured values as given in paper PMC4756352, “Atypical natural killer T-cell receptor recognition of CD1d–lipid antigens” (Nature Communications, 2016).

Tests used:
human CD1d [1] = target: T1, human CD1d (Homo sapiens, UniProt P15813); assay: SPR, lipid-loaded CD1d immobilised, TCR injected; details: lipid loaded at 3-6 fold molar excess overnight; binding seen through TCR recognition; HBS-T pH 7.4, 25 °C
T1 construct: soluble CD1d with C-terminal BirA biotin ligase tag and B2M, baculovirus/High Five insect cells, IMAC and gel filtration; biotinylated; with Beta-2-microglobulin

human CD1d [2] = target: T1, human CD1d; assay: lipid-loaded CD1d tetramer staining of TCR-transduced Jurkat cells; assay type: cell-based; details: binding seen through TCR recognition (9B1, 9B2 lines)

T1 sequence (P15813 20-295 limits assumed): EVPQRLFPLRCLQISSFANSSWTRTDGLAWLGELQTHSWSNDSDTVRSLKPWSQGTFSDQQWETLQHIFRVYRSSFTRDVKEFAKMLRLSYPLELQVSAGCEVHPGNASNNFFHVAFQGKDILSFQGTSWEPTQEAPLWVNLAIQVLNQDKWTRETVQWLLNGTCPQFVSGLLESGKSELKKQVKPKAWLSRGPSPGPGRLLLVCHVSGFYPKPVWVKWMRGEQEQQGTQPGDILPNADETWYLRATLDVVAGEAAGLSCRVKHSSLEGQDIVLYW
T1 sequence (P61769 21-119 partner): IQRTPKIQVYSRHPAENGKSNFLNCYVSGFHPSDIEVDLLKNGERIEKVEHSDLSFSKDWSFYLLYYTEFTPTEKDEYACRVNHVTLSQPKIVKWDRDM

Row | Compound | SPR, lipid-loaded CD1d immobilised, TCR injected (human CD1d [1]) | lipid-loaded CD1d tetramer staining of TCR-transduced Jurkat cells (human CD1d [2])
1 | CCCCCCCCCCCCCCCCCCCCCCCCCC(=O)N[C@@H](CO[C@H]1O[C@H](CO)C[C@H](O)[C@H]1O)[C@H](O)CCCCCCCCCCCCCCC | no negative impact of this analogue on NKT15 or 9B2 TCR binding | –
2 | CCCCCCCCCCCCCCCCCCCCCCCCCC(=O)N[C@@H](CO[C@H]1O[C@H](CO)[C@H](O)C[C@H]1O)[C@H](O)CCCCCCCCCCCCCCC [3′-deoxy-α-GalCer] | affinity of the 9C1 and 9B2 TCRs towards CD1d-3′-deoxy-α-GalCer | –
3 | CCCCCCCCCCCCCCCCCCCCCCCCCC(=O)N[C@@H](CO[C@H]1O[C@H](CO)[C@@H](O)[C@H](O)[C@H]1O)[C@H](O)[C@H](O)CCCCCCCCCCCCCC [α-GlcCer (C26:0)] | yet was well-tolerated by NKT15 TCR | –
4 | CCCCCCCCCCCCC/C=C/[C@@H](O)[C@H](CO[C@@H]1O[C@H](CO)[C@H](O)[C@H](O)[C@H]1O)NC(=O)CCCCCCCCCCC [β-GalCer (C12)] | – | These 9B1 and 9B2 TCRs also reacted to a lesser extent with β-GalCer
5 | CCCCCCCC/C=C\CCCCCCCCCCCCCC(=O)N[C@@H](CO[C@@H]1O[C@H](CO)[C@@H](O)[C@H](O)[C@H]1O)[C@H](O)/C=C/CCCCCCCCCCCCC [β-GlcCer (C24:1)] | – | we detected clear reactivity of Jurkat.9B1 and Jurkat.9B2 cell lines to β-GlcCer
